Test results: ChEMBL document CHEMBL1126229, “Enol lactone derivatives as inhibitors of human neutrophil elastase and trypsin-like proteases” (Bioorg Med Chem Lett, 1992)
Each block holds one compound with its values, some of them ahead of it.

Assays:
[1] = molecular target: T1, Neutrophil elastase (Homo sapiens) (UniProt P08246); experiment: Specificity constant on human neutrophil elastase was determined at 20 percent and at 99 minutes for maximum inhibition and no enzyme activity was recovered over the 2 h-time
T1 sequence (whole entry): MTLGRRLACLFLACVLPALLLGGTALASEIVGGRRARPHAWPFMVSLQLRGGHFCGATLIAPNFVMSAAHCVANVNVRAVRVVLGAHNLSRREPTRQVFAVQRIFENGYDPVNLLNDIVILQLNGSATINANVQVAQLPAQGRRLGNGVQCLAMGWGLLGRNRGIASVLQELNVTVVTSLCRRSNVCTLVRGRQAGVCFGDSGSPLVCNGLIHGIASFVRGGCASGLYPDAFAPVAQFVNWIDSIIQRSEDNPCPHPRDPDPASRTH

[2] = molecular target: T1, Neutrophil elastase (Homo sapiens); experiment: Rate constant of acylation on human neutrophil elastase was determined at 20 percent and at 99 minutes for maximum inhibition and no enzyme activity was recovered over the 2 h-time
[3] = molecular target: T1, Neutrophil elastase (Homo sapiens); experiment: Binding constant on human neutrophil elastase was determined at 20 percent and at 99 minutes for maximum inhibition and no enzyme activity was recovered over the 2 h-time
[4] = molecular target: T2, Chymotrypsin-like elastase family member 2A (Sus scrofa) (UniProt P08419); experiment: Rate constant of acylation on porcine pancreatic elastase was determined at 30 percent and at 99 minutes for maximum inhibition and no enzyme activity was recovered over the 2 h-time
T2 sequence (whole entry): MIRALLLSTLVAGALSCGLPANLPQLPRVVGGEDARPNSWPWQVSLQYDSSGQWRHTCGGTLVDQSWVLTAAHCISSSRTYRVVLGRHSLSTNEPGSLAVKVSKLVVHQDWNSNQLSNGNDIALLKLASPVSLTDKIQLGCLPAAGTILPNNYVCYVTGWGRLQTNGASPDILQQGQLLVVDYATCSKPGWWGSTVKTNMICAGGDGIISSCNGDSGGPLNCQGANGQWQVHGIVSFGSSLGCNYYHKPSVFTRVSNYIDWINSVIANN

[5] = molecular target: T2, Chymotrypsin-like elastase family member 2A (Sus scrofa); experiment: Specificity constant on porcine pancreatic elastase was determined at 30 percent and at 99 minutes for maximum inhibition and no enzyme activity was recovered over the 2 h-time
[6] = molecular target: T3, Serine protease 1 (Homo sapiens, UniProt P07477); experiment: Binding constant on trypsin was determined
[7] = molecular target: T3, Serine protease 1; experiment: Rate constant of acylation on trypsin was determined
[8] = molecular target: T3, Serine protease 1; experiment: Specificity constant on trypsin was determined
[9] = molecular target: Chymotrypsinogen A (Bos taurus) (UniProt P00766); experiment: Binding constant on alpha-chymotrypsin was determined
[10] = molecular target: Chymotrypsinogen A (Bos taurus) (UniProt P00766); experiment: Rate constant of acylation on alpha-chymotrypsin was determined
[11] = molecular target: Chymotrypsinogen A (Bos taurus) (UniProt P00766); experiment: Specificity constant on alpha-chymotrypsin was determined
[12] = molecular target: T2, Chymotrypsin-like elastase family member 2A (Sus scrofa); experiment: Binding constant on porcine pancreatic elastase was determined at 30 percent and at 99 minutes for maximum inhibition and no enzyme activity was recovered over the 2 h-time
[13] = molecular target: T1, Neutrophil elastase (Homo sapiens); experiment: Specificity constant on human neutrophil elastase was determined at 18 percent and at 26 minutes for maximum inhibition and no enzyme activity was recovered over the 2 h-time
[14] = molecular target: T1, Neutrophil elastase (Homo sapiens); experiment: Rate constant of acylation on human neutrophil elastase was determined at 18 percent and at 26 minutes for maximum inhibition and no enzyme activity was recovered over the 2 h-time
[15] = molecular target: T1, Neutrophil elastase (Homo sapiens); experiment: Binding constant on human neutrophil elastase was determined at 18 percent and at 26 minutes for maximum inhibition and no enzyme activity was recovered over the 2 h-time
[16] = molecular target: T2, Chymotrypsin-like elastase family member 2A (Sus scrofa); experiment: Rate constant of acylation on porcine pancreatic elastase was determined at 60 percent and at 30 minutes for maximum inhibition and no enzyme activity was recovered over the 2 h-time
[17] = molecular target: T2, Chymotrypsin-like elastase family member 2A (Sus scrofa); experiment: Specificity constant on porcine pancreatic elastase was determined at 60 percent and at 30 minutes for maximum inhibition and no enzyme activity was recovered over the 2 h-time
[18] = molecular target: T2, Chymotrypsin-like elastase family member 2A (Sus scrofa); experiment: Binding constant on porcine pancreatic elastase was determined at 60 percent and at 30 minutes for maximum inhibition and no enzyme activity was recovered over the 2 h-time
[19] = molecular target: T4, Plasminogen (Homo sapiens, UniProt P00747); experiment: Rate constant of deacylation for plasmin; Fast and could not be measured
[20] = molecular target: T5, Urokinase-type plasminogen activator (Homo sapiens, UniProt P00749); experiment: Rate constant of deacylation for Urokinase-type plasminogen activator
[21] = molecular target: T3, Serine protease 1; experiment: Rate constant of deacylation for trypsin
[22] = molecular target: T4, Plasminogen; experiment: Rate constant of acylation on plasmin was determined at 0 percent and at 95 minutes for maximum inhibition and no enzyme activity was recovered over the 2 h-time
[23] = molecular target: T4, Plasminogen; experiment: Specificity constant on plasmin was determined at 0 percent and at 95 minutes for maximum inhibition and no enzyme activity was recovered over the 2 h-time
[24] = molecular target: T4, Plasminogen; experiment: Binding constant on plasmin was determined at 0 percent and at 95 minutes for maximum inhibition and no enzyme activity was recovered over the 2 h-time
[25] = molecular target: T5, Urokinase-type plasminogen activator; experiment: Binding constant on Urokinase-type plasminogen activator was determined at 0 percent and at 98 minutes for maximum inhibition and no enzyme activity was recovered over the 2 h-time
[26] = molecular target: T6, Prothrombin (Homo sapiens, UniProt P00734); experiment: Binding constant on thrombin was determined at 0 percent and at 93 minutes for maximum inhibition and no enzyme activity was recovered over the 2 h-time
[27] = molecular target: T6, Prothrombin; experiment: Rate constant of acylation on thrombin was determined at 0 percent and at 93 minutes for maximum inhibition and no enzyme activity was recovered over the 2 h-time
[28] = molecular target: T6, Prothrombin; experiment: Specificity constant on thrombin was determined at 0 percent and at 93 minutes for maximum inhibition and no enzyme activity was recovered over the 2 h-time
[29] = molecular target: Chymotrypsinogen A (Bos taurus) (UniProt P00766); experiment: Specificity constant on alpha-chymotrypsin was determined at 15 percent and at 78 minutes for maximum inhibition and no enzyme activity was recovered over the 2 h-time
[30] = molecular target: T5, Urokinase-type plasminogen activator; experiment: Rate constant of acylation on Urokinase-type plasminogen activator […] was determined at 0 percent and at 98 minutes for maximum inhibition and no enzyme activity was recovered over the 2 h-time
[31] = molecular target: T5, Urokinase-type plasminogen activator; experiment: Specificity constant on Urokinase-type plasminogen activator was determined at 0 percent and at 98 minutes for maximum inhibition and no enzyme activity was recovered over the 2 h-time
[32] = molecular target: Chymotrypsinogen A (Bos taurus) (UniProt P00766); experiment: Binding constant on alpha-chymotrypsin was determined at 15 percent and at 78 minutes for maximum inhibition and no enzyme activity was recovered over the 2 h-time
[33] = molecular target: Chymotrypsinogen A (Bos taurus) (UniProt P00766); experiment: Rate constant of acylation on alpha-chymotrypsin was determined at 15 percent and at 78 minutes for maximum inhibition and no enzyme activity was recovered over the 2 h-time
[34] = molecular target: T1, Neutrophil elastase (Homo sapiens); experiment: Specificity constant on human neutrophil elastase was determined at 90 percent and at 93 minutes for maximum inhibition and no enzyme activity was recovered over the 2 h-time
[35] = molecular target: T1, Neutrophil elastase (Homo sapiens); experiment: Rate constant of acylation on human neutrophil elastase was determined at 90 percent and at 93 minutes for maximum inhibition and no enzyme activity was recovered over the 2 h-time
[36] = molecular target: T1, Neutrophil elastase (Homo sapiens); experiment: Binding constant on human neutrophil elastase was determined at 90 percent and at 93 minutes for maximum inhibition and no enzyme activity was recovered over the 2 h-time
[37] = molecular target: T3, Serine protease 1; experiment: Binding constant on trypsin was determined at 10 percent and at 95 minutes for maximum inhibition and no enzyme activity was recovered over the 2 h-time
[38] = molecular target: T3, Serine protease 1; experiment: Rate constant of acylation on trypsin was determined at 10 percent and at 95 minutes for maximum inhibition and no enzyme activity was recovered over the 2 h-time
[39] = molecular target: Chymotrypsinogen A (Bos taurus) (UniProt P00766); experiment: Specificity constant on alpha-chymotrypsin was determined at 10 percent and at 99 minutes for maximum inhibition and no enzyme activity was recovered over the 2 h-time
[40] = molecular target: T3, Serine protease 1; experiment: Specificity constant on trypsin was determined at 10 percent and at 95 minutes for maximum inhibition and no enzyme activity was recovered over the 2 h-time
[41] = molecular target: Chymotrypsinogen A (Bos taurus) (UniProt P00766); experiment: Binding constant on alpha-chymotrypsin was determined at 10 percent and at 99 minutes for maximum inhibition and no enzyme activity was recovered over the 2 h-time
[42] = molecular target: Chymotrypsinogen A (Bos taurus) (UniProt P00766); experiment: Rate constant of acylation on alpha-chymotrypsin was determined at 10 percent and at 99 minutes for maximum inhibition and no enzyme activity was recovered over the 2 h-time

T4 sequence (P00747 97-580 limits assumed): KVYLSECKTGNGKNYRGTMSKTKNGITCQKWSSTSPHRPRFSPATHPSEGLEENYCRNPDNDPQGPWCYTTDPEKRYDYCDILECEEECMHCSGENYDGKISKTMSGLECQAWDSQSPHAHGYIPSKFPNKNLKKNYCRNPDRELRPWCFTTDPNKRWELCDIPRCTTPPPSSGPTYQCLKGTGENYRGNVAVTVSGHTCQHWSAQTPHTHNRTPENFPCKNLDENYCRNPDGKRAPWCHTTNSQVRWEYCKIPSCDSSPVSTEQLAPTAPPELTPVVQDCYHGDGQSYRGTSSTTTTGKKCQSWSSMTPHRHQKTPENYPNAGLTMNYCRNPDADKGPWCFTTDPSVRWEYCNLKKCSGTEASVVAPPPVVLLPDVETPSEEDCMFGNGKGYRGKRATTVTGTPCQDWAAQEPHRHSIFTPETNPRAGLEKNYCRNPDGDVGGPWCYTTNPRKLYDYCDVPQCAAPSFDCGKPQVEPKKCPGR
T4 sequence (P00747 581-810 limits assumed): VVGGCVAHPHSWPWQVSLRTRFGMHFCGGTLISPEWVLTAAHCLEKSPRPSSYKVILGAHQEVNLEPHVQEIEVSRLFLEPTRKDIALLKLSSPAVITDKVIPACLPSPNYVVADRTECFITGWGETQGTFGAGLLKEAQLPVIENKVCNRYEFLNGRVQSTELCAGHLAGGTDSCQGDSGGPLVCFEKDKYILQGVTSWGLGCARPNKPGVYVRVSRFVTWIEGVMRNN
T3 sequence (P07477 whole entry): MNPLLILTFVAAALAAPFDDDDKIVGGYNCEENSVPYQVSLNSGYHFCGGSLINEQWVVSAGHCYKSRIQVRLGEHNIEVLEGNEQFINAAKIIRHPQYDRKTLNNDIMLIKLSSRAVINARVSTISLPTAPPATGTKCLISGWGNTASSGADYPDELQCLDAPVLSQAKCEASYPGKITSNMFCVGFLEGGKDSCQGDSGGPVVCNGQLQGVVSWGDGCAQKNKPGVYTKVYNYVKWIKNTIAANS

SMILES: C=C1CC(c2ccc(NC(=N)N)cc2)CC(=O)O1 (stereo not given)
Kd [19]: Not measurable | Kd [20]: 0.00015 s⁻¹ | Kd [21]: 3.3e-05 s⁻¹

SMILES: N=C(N)Nc1ccc(C2CC/C(=C\I)OC2=O)cc1 (stereo not given)
ka [22]: 13.6 min⁻¹ | ka/Ki [23]: 7.55e+06 M⁻¹ s⁻¹ | Ks/i [24]: 0.03 µM | Ks/i [25]: 0.16 µM | Ks/i [26]: 0.93 µM | ka [27]: 12.9 min⁻¹ | ka/Ki [28]: 233000 M⁻¹ s⁻¹ | ka/Ki [29]: 50000 M⁻¹ s⁻¹ | ka [30]: 18.6 min⁻¹ | ka/Ki [31]: 1.95e+06 M⁻¹ s⁻¹ | Ks/i [32]: 2.4 µM | ka [33]: 7.22 min⁻¹

Continued, values first:

ka/Ki [1]: 37500 M⁻¹ s⁻¹ | ka [2]: 0.18 min⁻¹ | Ks/i [3]: 0.08 µM | ka [4]: 0.28 min⁻¹ | ka/Ki [5]: 83.3 M⁻¹ s⁻¹ | Ks/i [6]: 65 µM | ka [7]: 2.4 min⁻¹ | ka/Ki [8]: 667 M⁻¹ s⁻¹ | Ks/i [9]: 2.3 µM | ka [10]: 1.6 min⁻¹ | ka/Ki [11]: 11700 M⁻¹ s⁻¹ | Ks/i [12]: 58.8 µM
SMILES: CC(C)C1CC/C(=C/Br)OC1=O (stereo not given)

ka/Ki [13]: 667 M⁻¹ s⁻¹ | ka [14]: 1.8 min⁻¹ | Ks/i [15]: 43.5 µM | ka [16]: 0.43 min⁻¹ | ka/Ki [17]: 33.3 M⁻¹ s⁻¹ | Ks/i [18]: 284 µM
SMILES: CC1(C)CC(=O)O/C(=C/Br)C1

ka/Ki [34]: 14500 M⁻¹ s⁻¹ | ka [35]: 0.67 min⁻¹ | Ks/i [36]: 0.77 µM | ka [4]: 0.52 min⁻¹ | ka/Ki [5]: 333 M⁻¹ s⁻¹ | Ks/i [37]: 44 µM | ka [38]: 1.8 min⁻¹ | ka/Ki [39]: 10000 M⁻¹ s⁻¹ | ka/Ki [40]: 667 M⁻¹ s⁻¹ | Ks/i [41]: 9.8 µM | ka [42]: 6 min⁻¹ | Ks/i [12]: 26.9 µM
SMILES: CC(C)C1CC/C(=C\Br)OC1=O (stereo not given)
